According to ChEMBL document CHEMBL3351424, “Reversible ketomethylene-based inhibitors of human neutrophil proteinase 3” (J Med Chem, 2014):
Calls of active or inactive are those of the source. No cut-off for these calls is given here. Starred links: 1 amine or outer side, 2 acyl side, 3 side chain; linkers in the order of their positions; H or OH if unused. Non-standard residues stand in square brackets, D forms with d. Residues, ends and D or L forms follow the SMILES beside them. *: point of attachment. EDDnp = O=[N+]([O-])c1ccc(NCCN*)c([N+](=O)[O-])c1; X1 = CCC[C@H](N[*:1])C(=O)C[C@@H](C)C(=O)[*:2]; 2Abz = Nc1ccccc1C(=O)O

What was measured:
[1] = biological target: T1, Neutrophil elastase (Homo sapiens) (UniProt P08246); test: Inhibition of human NE using MeOSuc-AAPV-AMC as substrate after 30 mins by fluorescence assay
T1 sequence (whole entry): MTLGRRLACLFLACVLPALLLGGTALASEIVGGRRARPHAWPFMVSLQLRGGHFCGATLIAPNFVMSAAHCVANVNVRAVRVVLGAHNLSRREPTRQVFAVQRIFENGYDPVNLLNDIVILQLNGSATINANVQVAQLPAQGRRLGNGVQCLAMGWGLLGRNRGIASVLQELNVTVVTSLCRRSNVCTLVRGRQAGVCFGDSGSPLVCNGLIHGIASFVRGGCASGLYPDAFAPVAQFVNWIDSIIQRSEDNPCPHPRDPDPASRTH

[2] = biological target: T2, Myeloblastin (Homo sapiens) (UniProt P24158); test: Inhibition of human PR3 using N-EY-FRET as substrate at 6 uM after 20 mins by fluorescence assay
T2 sequence (whole entry): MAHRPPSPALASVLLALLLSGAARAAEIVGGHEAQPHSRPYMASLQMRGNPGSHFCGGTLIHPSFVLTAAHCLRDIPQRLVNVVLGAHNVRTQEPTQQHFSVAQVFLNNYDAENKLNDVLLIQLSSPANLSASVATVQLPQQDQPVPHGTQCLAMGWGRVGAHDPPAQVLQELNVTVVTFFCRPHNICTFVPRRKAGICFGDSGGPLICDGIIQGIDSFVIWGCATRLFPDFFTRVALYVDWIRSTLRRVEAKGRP

[3] = biological target: T1, Neutrophil elastase (Homo sapiens); test: Inhibition of human NE using MeOSuc-AAPV-AMC as substrate at 6 uM after 30 mins by fluorescence assay
[4] = biological target: T3, Myeloblastin (Homo sapiens, UniProt P24158); test: Inhibition of human PR3 using D-DY-FRET as substrate after 30 mins by HPLC analysis
T3 sequence (P24158 whole entry): T2 sequence (whole entry)

Row | SMILES | inhibition [1] | inhibition [2] | inhibition [3] | IC50 [4]
1 | CCC[C@H](NC(=O)[C@H](CO)NC(=O)[C@H](C)NC(=O)[C@@H](NC(=O)c1ccccc1N)C(C)C)C(=O)C[C@@H](C)C(=O)N[C@@H](CCC(=O)O)C(=O)N[C@@H](CCCNC(=N)N)C(=O)N[C@@H](CCC(N)=O)C(=O)NCCNc1ccc([N+](=O)[O-])cc1[N+](=O)[O-] (H-[2Abz]VAS[X1]ERQ-EDDnp) | inactive |  |  | 
2 | O=S(=O)(F)Cc1ccccc1 [PHENYLMETHYLSULFONYLFLUORIDE] |  | 20% | 20% | 19.2 µM
